Laboratory results as given in patent US20210221848A1, “POLYMYXIN DERIVATIVES AND THEIR USE IN COMBINATION THERAPY TOGETHER WITH DIFFERENT ANTIBIOTICS” (priority 2014, published 2021).
In brackets after ≈: the same amount, converted by molar mass. Where two headings read alike, the source gives them in different places. Bridge positions count the residues as written; N and C are the ends. Square brackets hold non-standard residues; d marks the D form. Peptide text beside a SMILES is read from it. * marks the point of attachment. ξ: configuration not given here. Thr(3ξ) = CC(O)[C@H](N)C(=O)O; X9 = CC(C)[C@H](N)CCC(=O)*; Octanoyl = CCCCCCCC(=O)*; Dab = NCC[C@H](N)C(=O)O; X15 = O=C(C1CCNC1)*; GABA = NCCCC(=O)O; βAla = NCCC(=O)O

What was measured:
[1] = absence of a second agent, Table 6B

Compound	MIC, E. coli ATCC 25922 (E. coli; [1])	MIC, E. coli NCTC 13441 (E. coli; [1])	MIC, K. pneumoniae ATCC 4352 (K. pneumoniae; [1])	MIC, K. pneumoniae ATCC BAA-2146 (K. pneumoniae; [1])	MIC, P. aeruginosa ATCC 27853 (P. aeruginosa; [1])	MIC, P. aeruginosa CCUG 59347 (P. aeruginosa; [1])	MIC, A. baumannii ATCC BAA-747 (A. baumannii; [1])	MIC (A. baumannii)	also measured
1-(2- trifluoromethylben- zyl)piperazine- 2-carbonyl Polymyxin B nonapeptide [Example D55]									MIC, E. coli ATCC 25922 (E. coli; sole activity, Table 6C): 0.25 micrograms/mL; MIC, E. coli NCTC 13441 (E. coli; sole activity, Table 6C): 0.25 micrograms/mL; MIC, K. pneumoniae ATCC 4352 (K. pneumoniae; sole activity, Table 6C): 0.25 micrograms/mL; MIC, K. pneumoniae ATCC BAA-2146 (K. pneumoniae; sole activity, Table 6C): 0.5 micrograms/mL; MIC, P. aeruginosa ATCC 27853 (P. aeruginosa; sole activity, Table 6C): 0.5 micrograms/mL; MIC, P. aeruginosa CCUG 59347 (P. aeruginosa; sole activity, Table 6C): 1 micrograms/mL; MIC, A. baumannii ATCC BAA-747 (A. baumannii; sole activity, Table 6C): 0.25 micrograms/mL; MIC, A. baumannii NCTC 13424 (A. baumannii; sole activity, Table 6C): 0.5 micrograms/mL
(S)-4-amino-2- (benzyloxy)butan- oyl Polymyxin B nonapeptide [Example D54]									MIC, E. coli ATCC 25922 (E. coli; sole activity, Table 6C): 0.25 micrograms/mL; MIC, E. coli NCTC 13441 (E. coli; sole activity, Table 6C): 0.5 micrograms/mL; MIC, K. pneumoniae ATCC 4352 (K. pneumoniae; sole activity, Table 6C): 0.125 micrograms/mL; MIC, K. pneumoniae ATCC BAA-2146 (K. pneumoniae; sole activity, Table 6C): 0.25 micrograms/mL; MIC, P. aeruginosa ATCC 27853 (P. aeruginosa; sole activity, Table 6C): 0.5 micrograms/mL; MIC, P. aeruginosa CCUG 59347 (P. aeruginosa; sole activity, Table 6C): 1 micrograms/mL; MIC, A. baumannii ATCC BAA-747 (A. baumannii; sole activity, Table 6C): 1 micrograms/mL; MIC, A. baumannii NCTC 13424 (A. baumannii; sole activity, Table 6C): 4 micrograms/mL
(trans-6- octylpiperidine)-3- carbonyl polymyxin B nonapeptide [Example D19]	2 micrograms/mL	2 micrograms/mL	2 micrograms/mL	4 micrograms/mL	0.5 micrograms/mL	1 micrograms/mL	2 micrograms/mL		
CC(C)C[C@@H]1NC(=O)[C@@H](Cc2ccccc2)NC(=O)[C@H](CCN)NC(=O)[C@@H](NC(=O)[C@H](CCN)NC(=O)[C@@H](NC(=O)C2CCNC2)[C@@H](C)O)CCNC(=O)[C@H]([C@@H](C)O)NC(=O)[C@H](CCN)NC(=O)[C@H](CCN)NC1=O (stereo partly drawn) [Example B8, reference compound] (X15-T[Dab][Dab][Dab][dF]L[Dab][Dab]T; lactam 3-C)									MIC (E. coli): 4 µg/mL (≈ 3.77 µM)
CCCCCCCC(=O)NCC(=O)N[C@H](C(=O)N[C@@H](CCN)C(=O)N[C@H]1CCNC(=O)[C@H]([C@@H](C)O)NC(=O)[C@H](CCN)NC(=O)[C@H](CCN)NC(=O)[C@H](CC(C)C)NC(=O)[C@@H](Cc2ccccc2)NC(=O)[C@H](CCN)NC1=O)C(C)O (stereo partly drawn) [CC5, Octanoyl-Gly- Polymyxin B nonapeptide, reference compound] (Octanoyl-G[Thr(3ξ)][Dab][Dab][Dab][dF]L[Dab][Dab]T; lactam 4-C)								>8 µg/mL	MIC (E. coli): 8 µg/mL (≈ 6.98 µM); MIC (K. pneumoniae): 8 µg/mL (≈ 6.98 µM)
4-Amino-2-benzyl butanoylpolymyxin B nonapeptide [Example D3]	0.25 micrograms/mL	0.5 micrograms/mL	1 micrograms/mL	2 micrograms/mL	0.5 micrograms/mL	1 micrograms/mL	>8 micrograms/mL		MIC, A. baumannii NCTC 13424 (A. baumannii; [1]): >8 micrograms/mL
(trans-6- octylpiperidine)-3- carbonyl polymyxin B nonapeptide [Example D18]	4 micrograms/mL	4 micrograms/mL	8 micrograms/mL	>8 micrograms/mL	4 micrograms/mL	2 micrograms/mL	>8 micrograms/mL		MIC, A. baumannii NCTC 13424 (A. baumannii; [1]): >8 micrograms/mL
2-(2-aminoethyl)-4- methyl pentanoyl polymyxin B nonapeptide [Example D45]	0.5 micrograms/mL	2 micrograms/mL	0.5 micrograms/mL	2 micrograms/mL	1 micrograms/mL	4 micrograms/mL	8 micrograms/mL		MIC, A. baumannii NCTC 13424 (A. baumannii; [1]): 4 micrograms/mL
CCCCCCCC(=O)N[C@H](C(=O)N[C@@H](CCN)C(=O)N[C@H]1CCNC(=O)[C@H]([C@@H](C)O)NC(=O)[C@H](CCN)NC(=O)[C@H](CCN)NC(=O)[C@H](CC(C)C)NC(=O)[C@@H](Cc2ccccc2)NC(=O)[C@H](CCN)NC1=O)[C@@H](C)O [CC6, Octanoyl polymyxin B nonapeptide, reference compound] (Octanoyl-T[Dab][Dab][Dab][dF]L[Dab][Dab]T; lactam 3-C)								4 µg/mL (≈ 3.67 µM)	MIC (E. coli): 0.5 µg/mL (≈ 0.459 µM)
(S)-1-((2,3- dihydrobenzo[b][1,4] dioxin-6- yl)methyl)piperazine- 2-carbonyl polymyxin B nonapeptide [Example D58]									MIC, E. coli ATCC 25922 (E. coli; sole activity, Table 6C): 0.25 micrograms/mL; MIC, E. coli NCTC 13441 (E. coli; sole activity, Table 6C): 0.25 micrograms/mL; MIC, K. pneumoniae ATCC 4352 (K. pneumoniae; sole activity, Table 6C): 0.25 micrograms/mL; MIC, K. pneumoniae ATCC BAA-2146 (K. pneumoniae; sole activity, Table 6C): 0.25 micrograms/mL; MIC, P. aeruginosa ATCC 27853 (P. aeruginosa; sole activity, Table 6C): 0.5 micrograms/mL; MIC, P. aeruginosa CCUG 59347 (P. aeruginosa; sole activity, Table 6C): 1 micrograms/mL; MIC, A. baumannii ATCC BAA-747 (A. baumannii; sole activity, Table 6C): 1 micrograms/mL; MIC, A. baumannii NCTC 13424 (A. baumannii; sole activity, Table 6C): 0.5 micrograms/mL
CCCCCCCC(=O)N[C@@H](CCN)C(=O)N[C@H](C(=O)N[C@@H](CCN)C(=O)N[C@H]1CCNC(=O)[C@H]([C@@H](C)O)NC(=O)[C@H](CCN)NC(=O)[C@H](CCN)NC(=O)[C@H](CC(C)C)NC(=O)[C@@H](Cc2ccccc2)NC(=O)[C@H](CCN)NC1=O)C(C)O (stereo partly drawn) [CC4, Octanoyl polymyxin B decapeptide, reference compound] (Octanoyl-[Dab][Thr(3ξ)][Dab][Dab][Dab][dF]L[Dab][Dab]T; lactam 4-C)								1 µg/mL (≈ 0.841 µM)	
1,2,3,4- tetrahydroisoquinoline- 4-carbonyl polymyxin B nonapeptide [Example D14]	>8 micrograms/mL	>8 micrograms/mL	>8 micrograms/mL	>8 micrograms/mL	1 micrograms/mL	4 micrograms/mL	>8 micrograms/mL		MIC, A. baumannii NCTC 13424 (A. baumannii; [1]): >8 micrograms/mL
CC(C)C[C@@H]1NC(=O)[C@@H](Cc2ccccc2)NC(=O)[C@H](CCN)NC(=O)[C@@H](NC(=O)[C@H](CCN)NC(=O)[C@@H](NC(=O)CCCN)[C@@H](C)O)CCNC(=O)[C@H]([C@@H](C)O)NC(=O)[C@H](CCN)NC(=O)[C@H](CCN)NC1=O [Example B5, reference compound] (H-[GABA]T[Dab][Dab][Dab][dF]L[Dab][Dab]T; lactam 4-C)								4 µg/mL (≈ 3.82 µM)	
CC(C)C[C@@H]1NC(=O)[C@@H](Cc2ccccc2)NC(=O)[C@H](CCN)NC(=O)[C@@H](NC(=O)[C@H](CCN)NC(=O)[C@@H](NC(=O)CCN)[C@@H](C)O)CCNC(=O)[C@H]([C@@H](C)O)NC(=O)[C@H](CCN)NC(=O)[C@H](CCN)NC1=O [Example B7, reference compound] (H-[βAla]T[Dab][Dab][Dab][dF]L[Dab][Dab]T; lactam 4-C)								>8 µg/mL	
CC(C)C[C@@H]1NC(=O)[C@@H](Cc2ccccc2)NC(=O)[C@H](CCN)NC(=O)[C@@H](NC(=O)[C@H](CCN)NC(=O)[C@@H](NC(=O)CC[C@@H](N)C(C)C)[C@@H](C)O)CCNC(=O)[C@H]([C@@H](C)O)NC(=O)[C@H](CCN)NC(=O)[C@H](CCN)NC1=O [Example B6, reference compound] (X9-T[Dab][Dab][Dab][dF]L[Dab][Dab]T; lactam 3-C)								>8 µg/mL	MIC (E. coli): 8 µg/mL (≈ 7.34 µM); MIC (P. aeruginosa): 4 µg/mL (≈ 3.67 µM)
